Here are results for six compounds from ChEMBL document CHEMBL4665817, “Immobilized Metal Affinity Chromatography as a Drug Discovery Platform for Metalloenzyme Inhibitors” (J Med Chem, 2020).

Common to all, as to conditions: dose 2.55 µmol
The nature of assay [1]: Binding affinity to Nickel cation assessed as accounting ratio by measuring total compound detected/total compound adsorbed at 2.55 umol by immobilized metal-ion affinity chromatography.
Assay [2] is described as follows: Binding affinity to Zinc ion assessed as retention ratio by measuring compound detected in elution fraction/total compound detected at 2.55 umol by immobilized metal-ion affinity chromatography.
Assay [3] is described as follows: Binding affinity to zinc ion assessed as accounting ratio by measuring total compound detected/total compound adsorbed at 2.55 umol by immobilized metal-ion affinity chromatography.
Assay [4] can be described thus: Binding affinity to cupric ion assessed as accounting ratio by measuring total compound detected/total compound adsorbed at 2.55 umol by immobilized metal-ion affinity chromatography.
Assay [5] in a line: Binding affinity to Nickel cation assessed as performance ratio ratio by measuring product of accounting ratio and retention ratio at 2.55 umol by immobilized metal-ion affinity chromatography.
The nature of assay [6]: Binding affinity to gallium ion assessed as accounting ratio by measuring total compound detected/total compound adsorbed at 2.55 umol by immobilized metal-ion affinity chromatography.
The nature of assay [7]: Binding affinity to Ferric ion assessed as retention ratio by measuring compound detected in elution fraction/total compound detected at 2.55 umol by immobilized metal-ion affinity chromatography.
A short description of assay [8]: Binding affinity to Zinc ion assessed as performance ratio ratio by measuring product of accounting ratio and retention ratio at 2.55 umol by immobilized metal-ion affinity chromatography.
A short description of assay [9]: Binding affinity to Gallium ion assessed as retention ratio by measuring compound detected in elution fraction/total compound detected at 2.55 umol by immobilized metal-ion affinity chromatography.
A short description of assay [10]: Binding affinity to cupric ion assessed as retention ratio by measuring compound detected in elution fraction/total compound detected at 2.55 umol by immobilized metal-ion affinity chromatography.
Assay [11] in a line: Binding affinity to ferric ion assessed as accounting ratio by measuring total compound detected/total compound adsorbed at 2.55 umol by immobilized metal-ion affinity chromatography.
Assay [12] is described as follows: Binding affinity to cupric ion assessed as performance ratio ratio by measuring product of accounting ratio and retention ratio at 2.55 umol by immobilized metal-ion affinity chromatography.
The nature of assay [13]: Binding affinity to Ferric ion assessed as performance ratio ratio by measuring product of accounting ratio and retention ratio at 2.55 umol by immobilized metal-ion affinity chromatography.
Assay [14] in a line: Binding affinity to Nickel cation assessed as retention ratio by measuring compound detected in elution fraction/total compound detected at 2.55 umol by immobilized metal-ion affinity chromatography.
Assay [15] is described as follows: Binding affinity to Gallium ion assessed as performance ratio ratio by measuring product of accounting ratio and retention ratio at 2.55 umol by immobilized metal-ion affinity chromatography.

Regarding `NCCCC[C@H](N[C@@H](CCc1ccccc1)C(=O)O)C(=O)N1CCC[C@H]1C(=O)O`, the Ratio in assay [1] is 0.72; in [2], 0; in assay [3] it was 0.89; in assay [4], 0.88; in assay [5], 0; in assay [6], 0.93. Further, the Ratio was 0 in [7]; 0 in assay [8]; 0 in [9]; 0 in assay [10]; 0.9 in [11]; 0 in [12]. In addition, the Ratio in assay [13], in assay [14] and in [15] was 0 throughout.
`COc1c(N2C[C@@H]3CCCN[C@@H]3C2)c(F)cc2c(=O)c(C(=O)O)cn(C3CC3)c12`: the Ratio in assay [1] was 0.89; in [2], 1; in assay [3], 1.05; in [4], 0.25; in assay [5], 0.89; in [6], 0.16. For the same compound, the Ratio in assay [7] is 0.73; in assay [8], 1.05; in assay [9] it was 0.14; in assay [10], 0.95; in [11], 0.21; in assay [12], 0.24. Also, the Ratio in assay [13] turned out to be 0.15; in assay [14] it was 1; in assay [15], 0.02.
As to `O=C(/C=C/c1cccc(S(=O)(=O)Nc2ccccc2)c1)NO`, the Ratio in assay [1] came to 1.08; in assay [2], 1; in assay [3], 1.21; in assay [4], 0.13; in assay [5], 1.08; in assay [6], 0.23. The Ratio in assay [7] amounted to 0; in assay [8], 1.21; in [9], 1; in assay [10], 1; in assay [11], 0; in assay [12] it was 0.13. The Ratio in [13] was 0; in assay [14], 1; in assay [15], 0.23.
For `C[C@H](CSC(=O)c1ccccc1)C(=O)N1C[C@@H](Sc2ccccc2)C[C@H]1C(=O)O`, the Ratio turned out to be 1.29 in assay [1]; 0.01 in assay [2]; 1.4 in assay [3]; 1.51 in assay [4]; 0.01 in [5]; 1.43 in [6]. Moreover, the Ratio in [7] is 0; in assay [8] it was 0.01; in [9], 0.01; in assay [10], 0; in [11] it was 1.46; in assay [12], 0. Further, the figures for the Ratio in assay [13], in [14] and in [15] were 0, 0.01 and 0.01, respectively.
`Nc1ccccc1NC(=O)c1ccc(CNC(=O)OCc2cccnc2)cc1`: the Ratio turned out to be 0.35 in [1]; 0.01 in assay [2]; 0.83 in assay [3]; 0.59 in [4]; 0.21 in [5]; 0.98 in assay [6]. The Ratio in assay [7] was determined as 0; in assay [8], 0.01; in assay [9], 0.01; in assay [10], 0.02; in assay [11], 0.99; in assay [12], 0.01. In addition, the figures for the Ratio in [13], in assay [14] and in assay [15] were 0, 0.6 and 0.01, respectively.
As to `CC(=O)Nc1ccc(C(=O)Nc2ccccc2N)cc1`, the Ratio in assay [1] is 1; in assay [2], 0; in assay [3] it was 1.01; in assay [4], 0.99; in assay [5] it was 0.01; in assay [6] it was 0.99. The Ratio in [7] is 0; in [8], 0; in [9], 0; in assay [10] it was 0; in [11], 1.01; in assay [12], 0. Moreover, the Ratio in assay [13] turned out to be 0; in [14], 0.01; in [15], 0.
